According to patent US8404893B2, “Pentafluorosulfanylbenzoylguanidines, processes for their preparation, their use as medicaments or diagnostic aids, and medicaments comprising them” (Sanofi-Aventis Deutschland GmbH, priority 2002, dated 2013):
Counter-ions that a name gives are not always drawn.

These compounds were tested against T1, human NHE-1 (Homo sapiens, UniProt P19634) (assay: FLIPR assay for NHE-1 inhibition by measurement of the recovery in pHi in transfected cell lines). Conditions: transfected LAP-1 cell line expressing human NHE-1, BCECF fluorescence, read-out: NHE1 inhibition IC50.
T1 construct: expressed in transfected cells; host or cells: LAP-1 cells (parental line without endogenous NHE activity), stably transfected, G418 selection
Type: cell-based
Protocol: The NHE-1 inhibition IC50 [nM] was determined as follows:
FLIPR assay for determining NHE-1 inhibitors by measurement of the recovery in pHi in transfected cell lines which express human NHE-1
The assay is carried out in an FLIPR (fluorometric imaging plate reader) with black-walled 96-well microtiter plates with clear bases. […] [The growth medium for the transfected cells (Iscove+10% fetal calf serum) additionally contains G418 as selection antibiotic in order to ensure the presence of the transfected sequences.]
The actual assay starts with the removal of the growth medium and addition of 100 μl of loading buffer per well (5 μM BCECF-AM [2′,7′-bis(carboxyethyl)-5-(and -6-)carboxyfluorescein, acetoxymethyl ester] in 20 mM NH4Cl, 115 mM choline chloride, 1 mM MgCl2, 1 mM CaCl2, 5 mM KCl, 20 mM HEPES, 5 mM glucose; pH 7.4 [adjusted with KOH]). The cells are then incubated at 37° C. for 20 minutes. This incubation leads to loading of the cells with the fluorescent dye whose fluorescence intensity depends on pHi, and with NH4Cl which makes the cells slightly alkaline.
[The nonfluorescent dye precursor BCECF-AM is, as ester, membrane-permeable. The actual dye BCECF is not membrane-permeable but is liberated inside cells by esterases.]
After this incubation for 20 minutes, the loading buffer which contains NH4Cl and free BCECF-AM is removed by washing three times in a cell washer (Tecan Columbus) with in each case 400 μl of washing buffer (133.8 mM choline chloride, 4.7 mM KCl, 1.25 mM MgCl2, 1.25 mM CaCl2, 0.97 mM K2HPO4, 0.23 mM KH2PO4, 5 mM HEPES, 5 mM glucose; pH 7.4 [adjusted with KOH]). The residual volume remaining in the wells is 90 μl (50-125 μl possible). This washing step removes the free BCECF-AM and results, as a consequence of the removal of the external NH4^+ ions, in intracellular acidification (˜pHi 6.3-6.4).
Since the equilibrium of intracellular NH4^+ with NH3 and H^+ is disturbed by the removal of the extracellular NH4^+ and by the subsequent instantaneous passage of the NH3 through the cell membrane, the washing process results in H^+ remaining inside the cells, which is the cause of the intracellular acidification. This may eventually lead to cell death if it persists long enough.
It is important at this point that the washing buffer is sodium-free (<1 mM) because extracellular sodium ions would lead to an instantaneous recovery of the pHi through the activity of the cloned NHE isoforms.
It is likewise important for all the buffers used (loading buffer, washing buffer, recovery buffer) not to contain any HCO3^− ions, because the presence of bicarbonate would lead to activation of interfering bicarbonate-dependent pHi regulatory systems present in the parental LAP-1 cell line.
The microtiter plates with the acidified cells are then (up to 20 minutes after the acidification) transferred to the FLIPR. In the FLIPR, the intracellular fluorescent dye is excited by light with a wavelength of 488 nm generated by an argon laser, and the measured parameters (laser power, illumination time and aperture of the CCD camera incorporated in the FLIPR) are chosen so that the average fluorescence signal per well is between 30 000 and 35 000 relative fluorescence units.
The actual measurement in the FLIPR starts with a photograph being taken by the CCD camera every two seconds under software control. After ten seconds, the recovery of the intracellular pH is initiated by adding 90 μl of recovery buffer (133.8 mM NaCl, 4.7 mM KCl, 1.25 mM MgCl2, 1.25 mM CaCl2, 0.97 mM K2HPO4, 0.23 mM KH2PO4, 10 mM HEPES, 5 mM glucose; pH 7.4 [adjusted with NaOH]) by means of the 96-well pipettor incorporated in the FLIPR.
Positive control wells (100% NHE activity) are those to which pure recovery buffer is added, while negative controls (0% NHE activity) receive washing buffer. Recovery buffer with twice the concentration of test substance is added to all the other wells. Measurement in the FLIPR terminates after 60 measurements (two minutes). […]

T1 sequence (P19634 whole entry): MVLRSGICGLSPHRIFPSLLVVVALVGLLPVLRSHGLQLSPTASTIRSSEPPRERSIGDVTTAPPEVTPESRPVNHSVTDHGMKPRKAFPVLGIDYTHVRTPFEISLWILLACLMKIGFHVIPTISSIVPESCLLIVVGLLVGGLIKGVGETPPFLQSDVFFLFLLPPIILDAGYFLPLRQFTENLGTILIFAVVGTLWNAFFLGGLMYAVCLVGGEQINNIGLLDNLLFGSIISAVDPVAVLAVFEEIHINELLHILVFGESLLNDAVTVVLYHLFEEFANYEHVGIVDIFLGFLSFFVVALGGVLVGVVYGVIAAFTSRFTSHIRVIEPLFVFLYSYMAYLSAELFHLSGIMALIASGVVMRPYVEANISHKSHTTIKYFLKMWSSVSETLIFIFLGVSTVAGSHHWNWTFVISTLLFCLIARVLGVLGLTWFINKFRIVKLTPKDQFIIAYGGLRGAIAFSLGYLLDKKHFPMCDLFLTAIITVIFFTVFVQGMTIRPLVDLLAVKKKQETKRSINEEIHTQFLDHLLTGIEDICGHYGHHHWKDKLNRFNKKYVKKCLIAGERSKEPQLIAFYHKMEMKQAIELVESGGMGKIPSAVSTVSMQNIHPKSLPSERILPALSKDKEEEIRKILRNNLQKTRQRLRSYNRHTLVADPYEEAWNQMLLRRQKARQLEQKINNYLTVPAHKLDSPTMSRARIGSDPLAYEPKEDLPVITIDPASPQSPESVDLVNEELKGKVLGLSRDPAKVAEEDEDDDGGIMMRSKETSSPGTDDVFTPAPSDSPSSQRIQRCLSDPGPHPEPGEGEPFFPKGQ

Row | Compound | IC50 [nM]
1 | Cc1cc(S(F)(F)(F)(F)F)ccc1C(=O)N=C(N)N [Example 3, 4-Pentafluorosulfanyl-2-methylbenzoylguanidine] | 14.5
2 | Cc1ccc(S(F)(F)(F)(F)F)cc1C(=O)N=C(N)N [Example 6, N-(2-Methyl-5-pentafluorosulfanylbenzoyl)guanidine] | 20.3
3 | N=C(N)NC(=O)c1ccc(S(F)(F)(F)(F)F)cc1Cl [Example 4, N-[2-Chloro-4-pentafluorosulfanylbenzoyl]guanidine] | 220
4 | N=C(N)NC(=O)c1ccc(S(F)(F)(F)(F)F)cc1Oc1ccc(F)cc1 [Example 5, N-[2-(4-Fluorophenoxy)-4-pentafluorosulfanylbenzoyl]guanidine] | 12000
5 | NC(N)=NC(=O)c1ccc(S(F)(F)(F)(F)F)cc1 [Example 2, 4-Pentafluorosulfanylbenzoylguanidine, Hydrochloride] | 131
6 | NC(N)=NC(=O)c1cccc(S(F)(F)(F)(F)F)c1 [Example 1, 3-Pentafluorosulfanylbenzoylguanidine, Hydrochloride] | 237
